Article PMC5762315, “Inhibition of polo-like kinase 4 (PLK4): a new therapeutic option for rhabdoid tumors and pediatric medulloblastoma” (Oncotarget, 2017)
pIC50: −log10 of the molar value. Values joined by “and” are separate entries in the source; they are usually repeats but may differ in a detail not shown here. Equal entries are not always repeated.

Experiments:
[1] = molecular target: various kinases (Homo sapiens, UniProt P42336, E542K); assay: Adapta Universal Kinase Assay, panel of 486 biochemical kinase assays; parameters: % Inhibition Average: concentration or dose not given beside the values; conditions: PIK3CA E542K/PIK3R1 (p110 alpha E542K/p85 alpha)
[2] = molecular target: various kinases (Homo sapiens, UniProt P42336); assay: as above; parameters: % Inhibition Average: concentration or dose not given beside the values
[3] = molecular target: various kinases (Homo sapiens, UniProt P48426); assay: as above; parameters: % Inhibition Average: concentration or dose not given beside the values; conditions: PIP4K2A
[4] = molecular target: various kinases (Homo sapiens, UniProt P53355); assay: as above; parameters: % Inhibition Average: concentration or dose not given beside the values; conditions: DAPK1
[5] = molecular target: various kinases (Homo sapiens, UniProt P50750); assay: as above; parameters: % Inhibition Average: concentration or dose not given beside the values; conditions: CDK9/cyclin T1
[6] = molecular target: various kinases (Homo sapiens, UniProt P42338); assay: as above; parameters: % Inhibition Average: concentration or dose not given beside the values
[7] = molecular target: various kinases (Homo sapiens, UniProt P48736); assay: as above; parameters: % Inhibition Average: concentration or dose not given beside the values; conditions: PIK3CG (p110 gamma)
[8] = molecular target: various kinases (Homo sapiens, UniProt O00750); assay: as above; parameters: % Inhibition Average: concentration or dose not given beside the values; conditions: PIK3C2B (PI3K-C2 beta)
[9] = molecular target: various kinases (Homo sapiens, UniProt O14986); assay: as above; parameters: % Inhibition Average: concentration or dose not given beside the values; conditions: kinase PIP5K1B; Adapta
[10] = molecular target: various kinases (Homo sapiens, UniProt Q5S007, R1441C); assay: as above; parameters: % Inhibition Average: concentration or dose not given beside the values; conditions: LRRK2 R1441C
[11] = molecular target: various kinases (Homo sapiens, UniProt Q99755); assay: as above; parameters: % Inhibition Average: concentration or dose not given beside the values; conditions: PIP5K1A
[12] = molecular target: various kinases (Homo sapiens, UniProt Q8TCG2); assay: as above; parameters: % Inhibition Average: concentration or dose not given beside the values; conditions: PI4K2B (PI4K2 beta)
[13] = molecular target: T1, various kinases (Homo sapiens, UniProt Q9NRA0); assay: as above; parameters: % Inhibition Average: concentration or dose not given beside the values; conditions: kinase SPHK2; Adapta
T1 sequence (Q9NRA0 1-654): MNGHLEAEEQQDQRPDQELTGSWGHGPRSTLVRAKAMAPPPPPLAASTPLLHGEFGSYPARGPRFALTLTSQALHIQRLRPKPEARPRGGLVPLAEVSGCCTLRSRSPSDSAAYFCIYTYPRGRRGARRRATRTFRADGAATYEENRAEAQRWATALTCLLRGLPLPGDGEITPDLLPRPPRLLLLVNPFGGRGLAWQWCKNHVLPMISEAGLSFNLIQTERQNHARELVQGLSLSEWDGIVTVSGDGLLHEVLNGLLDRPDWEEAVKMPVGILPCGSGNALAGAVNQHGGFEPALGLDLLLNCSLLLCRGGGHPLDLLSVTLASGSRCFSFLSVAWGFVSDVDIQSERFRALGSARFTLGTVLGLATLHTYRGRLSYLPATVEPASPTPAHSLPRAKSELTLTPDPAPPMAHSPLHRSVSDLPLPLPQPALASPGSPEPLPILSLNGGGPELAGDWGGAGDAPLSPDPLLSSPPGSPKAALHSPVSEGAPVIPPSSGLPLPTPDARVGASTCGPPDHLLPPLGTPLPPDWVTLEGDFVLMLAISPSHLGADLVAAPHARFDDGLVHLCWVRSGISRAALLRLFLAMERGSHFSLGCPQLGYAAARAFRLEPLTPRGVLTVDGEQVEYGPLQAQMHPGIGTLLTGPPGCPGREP

[14] = molecular target: various kinases (Homo sapiens, UniProt Q9BTU6); assay: as above; parameters: % Inhibition Average: concentration or dose not given beside the values; conditions: PI4K2A (PI4K2 alpha)
[15] = molecular target: various kinases (Homo sapiens, UniProt P42336, E545K); assay: as above; parameters: % Inhibition Average: concentration or dose not given beside the values; conditions: PIK3CA E545K/PIK3R1 (p110 alpha E545K/p85 alpha)
[16] = molecular target: various kinases (Homo sapiens, UniProt P42356); assay: as above; parameters: % Inhibition Average: concentration or dose not given beside the values; conditions: PI4KA (PI4K alpha)
[17] = molecular target: various kinases (Homo sapiens, UniProt Q5S007, I2020T); assay: as above; parameters: % Inhibition Average: concentration or dose not given beside the values; conditions: LRRK2 I2020T
[18] = molecular target: various kinases (Homo sapiens, UniProt O00443); assay: as above; parameters: % Inhibition Average: concentration or dose not given beside the values; conditions: PIK3C2A (PI3K-C2 alpha)
[19] = molecular target: DDR2 (Homo sapiens, UniProt Q16832); assay: Kinase activity screening (SelectScreen), DDR2; format: biochemical
[20] = molecular target: ROS1 (Homo sapiens, UniProt P08922); assay: Kinase activity screening (SelectScreen), ROS1; format: biochemical; conditions: ZLYTE

Chain of DDR2 (Q16832 22-855): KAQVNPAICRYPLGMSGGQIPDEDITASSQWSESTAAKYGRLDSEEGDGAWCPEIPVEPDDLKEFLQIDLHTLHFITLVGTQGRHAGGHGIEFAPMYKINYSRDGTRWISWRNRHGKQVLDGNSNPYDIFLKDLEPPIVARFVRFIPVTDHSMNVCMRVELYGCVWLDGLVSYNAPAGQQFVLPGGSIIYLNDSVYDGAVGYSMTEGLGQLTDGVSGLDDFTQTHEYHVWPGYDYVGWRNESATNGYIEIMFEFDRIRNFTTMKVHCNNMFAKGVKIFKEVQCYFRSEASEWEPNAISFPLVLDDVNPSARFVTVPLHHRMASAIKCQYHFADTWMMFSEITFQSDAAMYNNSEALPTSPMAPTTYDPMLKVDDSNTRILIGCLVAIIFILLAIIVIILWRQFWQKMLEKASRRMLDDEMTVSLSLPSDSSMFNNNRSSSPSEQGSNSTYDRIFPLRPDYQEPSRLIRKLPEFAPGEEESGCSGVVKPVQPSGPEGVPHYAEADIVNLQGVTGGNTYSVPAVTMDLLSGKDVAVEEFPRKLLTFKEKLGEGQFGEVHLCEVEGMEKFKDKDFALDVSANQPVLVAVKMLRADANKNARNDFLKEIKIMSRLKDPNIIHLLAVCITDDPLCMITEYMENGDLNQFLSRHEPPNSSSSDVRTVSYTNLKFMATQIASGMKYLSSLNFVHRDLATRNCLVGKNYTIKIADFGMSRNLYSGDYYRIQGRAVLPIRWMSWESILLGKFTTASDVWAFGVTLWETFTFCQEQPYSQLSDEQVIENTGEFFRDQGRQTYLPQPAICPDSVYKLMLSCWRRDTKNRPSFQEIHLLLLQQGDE
Chain of various kinases (Homo sapiens, UniProt O14986) (O14986 whole entry): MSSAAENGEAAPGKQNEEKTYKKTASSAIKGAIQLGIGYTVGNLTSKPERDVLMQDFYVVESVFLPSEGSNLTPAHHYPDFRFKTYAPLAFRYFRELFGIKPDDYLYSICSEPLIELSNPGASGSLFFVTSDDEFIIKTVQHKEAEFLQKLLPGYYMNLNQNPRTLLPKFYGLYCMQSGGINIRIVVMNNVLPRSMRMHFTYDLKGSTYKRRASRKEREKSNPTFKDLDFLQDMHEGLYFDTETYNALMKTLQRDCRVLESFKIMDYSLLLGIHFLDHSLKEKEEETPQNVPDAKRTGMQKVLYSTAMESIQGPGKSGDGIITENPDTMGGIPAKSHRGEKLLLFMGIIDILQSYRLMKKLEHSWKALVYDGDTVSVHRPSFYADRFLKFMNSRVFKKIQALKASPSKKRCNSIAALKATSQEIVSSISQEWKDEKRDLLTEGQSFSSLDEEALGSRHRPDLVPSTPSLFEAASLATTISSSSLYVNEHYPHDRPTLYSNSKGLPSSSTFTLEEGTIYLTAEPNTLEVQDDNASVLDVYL
Chain of various kinases (Homo sapiens, UniProt P42338) (P42338 whole entry): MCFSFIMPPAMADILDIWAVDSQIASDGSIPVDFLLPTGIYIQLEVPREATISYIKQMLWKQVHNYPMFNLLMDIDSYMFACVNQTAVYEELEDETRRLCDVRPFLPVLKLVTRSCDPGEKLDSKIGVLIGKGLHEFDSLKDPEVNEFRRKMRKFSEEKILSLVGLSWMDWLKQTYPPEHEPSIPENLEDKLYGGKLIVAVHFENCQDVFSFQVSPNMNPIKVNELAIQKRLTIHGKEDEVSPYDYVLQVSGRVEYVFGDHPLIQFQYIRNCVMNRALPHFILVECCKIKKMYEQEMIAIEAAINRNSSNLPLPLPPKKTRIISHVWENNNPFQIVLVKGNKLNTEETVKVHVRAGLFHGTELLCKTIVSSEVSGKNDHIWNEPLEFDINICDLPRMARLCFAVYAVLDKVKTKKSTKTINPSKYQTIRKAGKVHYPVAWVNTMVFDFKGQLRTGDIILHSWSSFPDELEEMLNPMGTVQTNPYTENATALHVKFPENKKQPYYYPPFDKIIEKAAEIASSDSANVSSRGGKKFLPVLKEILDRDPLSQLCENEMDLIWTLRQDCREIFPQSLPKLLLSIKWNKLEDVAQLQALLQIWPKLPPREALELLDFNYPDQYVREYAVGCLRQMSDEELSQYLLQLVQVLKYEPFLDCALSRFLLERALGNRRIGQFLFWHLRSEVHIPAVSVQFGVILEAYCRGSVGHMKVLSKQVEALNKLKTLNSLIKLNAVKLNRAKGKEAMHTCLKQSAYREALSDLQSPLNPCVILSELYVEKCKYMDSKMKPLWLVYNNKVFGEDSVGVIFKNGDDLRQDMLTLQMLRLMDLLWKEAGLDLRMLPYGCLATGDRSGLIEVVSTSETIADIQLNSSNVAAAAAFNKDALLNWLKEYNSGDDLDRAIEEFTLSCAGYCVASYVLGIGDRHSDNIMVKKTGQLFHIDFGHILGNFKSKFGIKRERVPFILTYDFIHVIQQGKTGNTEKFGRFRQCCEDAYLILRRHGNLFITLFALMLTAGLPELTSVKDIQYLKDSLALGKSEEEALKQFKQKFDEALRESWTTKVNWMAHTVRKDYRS
Chain of various kinases (Homo sapiens, UniProt P42336) (P42336 whole entry): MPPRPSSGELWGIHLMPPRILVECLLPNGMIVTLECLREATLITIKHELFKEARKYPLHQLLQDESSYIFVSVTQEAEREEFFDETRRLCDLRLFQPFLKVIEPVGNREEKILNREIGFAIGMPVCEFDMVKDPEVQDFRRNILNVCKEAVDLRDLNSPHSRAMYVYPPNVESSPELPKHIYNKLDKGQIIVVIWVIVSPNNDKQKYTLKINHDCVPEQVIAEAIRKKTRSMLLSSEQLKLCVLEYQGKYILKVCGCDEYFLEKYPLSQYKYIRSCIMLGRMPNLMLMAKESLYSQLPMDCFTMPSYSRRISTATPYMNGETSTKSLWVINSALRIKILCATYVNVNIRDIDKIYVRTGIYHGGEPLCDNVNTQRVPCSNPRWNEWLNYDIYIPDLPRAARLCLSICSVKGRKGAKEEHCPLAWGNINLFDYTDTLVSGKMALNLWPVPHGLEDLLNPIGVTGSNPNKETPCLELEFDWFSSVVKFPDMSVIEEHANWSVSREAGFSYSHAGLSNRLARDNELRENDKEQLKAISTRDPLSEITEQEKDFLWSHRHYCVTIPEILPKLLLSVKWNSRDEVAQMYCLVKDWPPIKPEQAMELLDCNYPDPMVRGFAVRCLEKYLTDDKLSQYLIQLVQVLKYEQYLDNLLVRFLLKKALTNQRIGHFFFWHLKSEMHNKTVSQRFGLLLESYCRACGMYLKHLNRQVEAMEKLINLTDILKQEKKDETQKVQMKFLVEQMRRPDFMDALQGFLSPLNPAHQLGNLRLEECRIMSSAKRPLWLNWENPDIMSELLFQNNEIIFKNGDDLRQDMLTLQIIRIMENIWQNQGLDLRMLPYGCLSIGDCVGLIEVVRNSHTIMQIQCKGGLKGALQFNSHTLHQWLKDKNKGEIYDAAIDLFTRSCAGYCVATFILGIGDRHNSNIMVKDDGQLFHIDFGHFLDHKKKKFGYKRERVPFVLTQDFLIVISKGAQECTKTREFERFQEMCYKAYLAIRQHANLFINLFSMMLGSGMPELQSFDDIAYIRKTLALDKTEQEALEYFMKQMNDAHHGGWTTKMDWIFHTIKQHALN
Chain of various kinases (Homo sapiens, UniProt P42336, E542K) (P42336 whole entry E542K): as the sequence (P42336 whole entry) above, with E542K counted along it
Chain of various kinases (Homo sapiens, UniProt P42336, E545K) (P42336 whole entry E545K): as the sequence (P42336 whole entry) above, with E545K counted along it
Chain of various kinases (Homo sapiens, UniProt Q9BTU6) (Q9BTU6 whole entry): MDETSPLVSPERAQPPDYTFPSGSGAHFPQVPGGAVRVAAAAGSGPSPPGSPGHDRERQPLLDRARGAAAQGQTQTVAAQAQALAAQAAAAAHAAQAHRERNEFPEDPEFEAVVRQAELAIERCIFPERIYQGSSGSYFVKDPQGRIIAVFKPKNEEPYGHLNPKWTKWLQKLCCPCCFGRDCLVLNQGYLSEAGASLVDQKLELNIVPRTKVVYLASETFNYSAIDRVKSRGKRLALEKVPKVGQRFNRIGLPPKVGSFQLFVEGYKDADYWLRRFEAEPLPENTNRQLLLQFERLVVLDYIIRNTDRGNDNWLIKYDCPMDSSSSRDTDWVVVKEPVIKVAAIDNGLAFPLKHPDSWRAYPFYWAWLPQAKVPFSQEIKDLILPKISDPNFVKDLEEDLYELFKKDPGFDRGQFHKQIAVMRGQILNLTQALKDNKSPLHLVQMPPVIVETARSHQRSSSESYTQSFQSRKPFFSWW
Chain of various kinases (Homo sapiens, UniProt Q8TCG2) (Q8TCG2 whole entry): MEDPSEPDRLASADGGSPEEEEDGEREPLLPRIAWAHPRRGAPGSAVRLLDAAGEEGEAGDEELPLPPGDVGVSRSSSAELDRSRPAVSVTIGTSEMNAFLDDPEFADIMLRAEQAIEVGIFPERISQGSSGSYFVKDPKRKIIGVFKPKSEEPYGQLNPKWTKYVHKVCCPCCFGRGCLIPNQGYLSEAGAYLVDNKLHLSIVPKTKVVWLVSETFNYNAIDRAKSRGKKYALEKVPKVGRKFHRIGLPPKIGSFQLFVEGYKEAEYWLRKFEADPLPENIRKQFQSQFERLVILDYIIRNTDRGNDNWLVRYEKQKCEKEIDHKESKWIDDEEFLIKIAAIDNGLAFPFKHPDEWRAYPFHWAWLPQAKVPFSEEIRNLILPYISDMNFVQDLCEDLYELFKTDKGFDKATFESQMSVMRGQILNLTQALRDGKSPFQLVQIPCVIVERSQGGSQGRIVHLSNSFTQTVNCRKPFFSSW
Chain of various kinases (Homo sapiens, UniProt P48426) (P48426 whole entry): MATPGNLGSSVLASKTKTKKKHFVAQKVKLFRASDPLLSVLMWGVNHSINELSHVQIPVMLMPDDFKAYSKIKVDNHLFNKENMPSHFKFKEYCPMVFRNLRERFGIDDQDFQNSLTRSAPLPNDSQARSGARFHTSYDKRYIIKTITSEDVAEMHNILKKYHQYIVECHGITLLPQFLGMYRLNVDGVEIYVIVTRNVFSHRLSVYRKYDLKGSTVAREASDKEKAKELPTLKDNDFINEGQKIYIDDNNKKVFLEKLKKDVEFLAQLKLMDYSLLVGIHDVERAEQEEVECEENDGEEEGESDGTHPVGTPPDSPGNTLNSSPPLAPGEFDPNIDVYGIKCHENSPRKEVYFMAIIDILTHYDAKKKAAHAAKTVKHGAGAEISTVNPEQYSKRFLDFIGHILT

With `COc1ccc2c(c1)[C@]1(C[C@H]1c1ccc3c(/C=C/c4ccc(CN5C[C@@H](C)O[C@@H](C)C5)cc4)n[nH]c3c1)C(=O)N2` [CFI-400945] the “% Inhibition” value [1] was 6% and 9%, the “% Inhibition” value ([2]; PIK3CA/PIK3R1 (p110 alpha/p85 alpha)) was -9% and -6% and the “% Inhibition” value ([2]; PIK3CA/PIK3R3 (p110 alpha/p55 gamma)) was -2% and 6%. The “% Inhibition” value [3] was 5% and 10%, the “% Inhibition” value [4] was 2% and 0% and the “% Inhibition” value [5] was 17% and 14%. The “% Inhibition” value ([6]; PIK3CB/PIK3R1 (p110 beta/p85 alpha)) was 4% and 3%, the “% Inhibition” value ([6]; PIK3CB/PIK3R2 (p110 beta/p85 beta)) was 12% and 6% and the “% Inhibition” value [7] was -2% and -5%. For the same compound, the “% Inhibition” value [8] was 2% and -1%, the “% Inhibition Average” value [9] was -1% and the “% Inhibition Duplicate #1” value [9] was 2%. For the same compound, the “% Inhibition Duplicate #2” value [9] was -3%, the “% Inhibition” value [10] was 35% and 42% and the “% Inhibition” value [11] was -3% and 4%. The “% Inhibition” value [12] was -13% and -11%, the “% Inhibition Average” value [13] was -20% and the “% Inhibition Duplicate #1” value [13] was -15%. The “% Inhibition Duplicate #2” value [13] was -24%, the “% Inhibition” value [14] was -1% and 2% and the “% Inhibition” value [15] was -5% and -9%. The “% Inhibition” value [16] was 12% and 7%, the “% Inhibition” value [17] was 44% and 46% and the “% Inhibition” value [18] was 0% and 1%. The pIC50 ([19]; 10-point titration) was 6.50, the “% Inhibition” value ([19]; DDR2, LanthaScreen Binding) was 9% and 18% and the “% Inhibition Duplicate #1” value [20] was 99%.
